In patent US20090087845A1, “Genetic Markers Of True Low Birth Weight” (priority 2005, published 2009):
Where “and” joins values, the source holds several entries; their conditions need not be identical. Identical values can stand only once.

Tested on: placental gene expression
Assay: Placental gene expression (Affymetrix Rat Genome Chip 230.2) after SSRI (fluoxetine) exposure throughout gestation
Type: in vivo
Experimental: Gene expression data from pregnant rats under different forms of dietary restriction was gathered. […] (N=8) • Group 2 (CR50): Rats Given 50% of their Normal Daily Intake of Food. (N=5) • Group 3 (CR70): Rats Given 70% of their Normal Daily Intake of Food. […] (N=6) Placentas from the rats of each Group were harvested on Day 21 of gestation. RNA was extracted and gene expression was measured based on hybridization of RNA to Affymetrix Rat Genome Chips™ (230.2) (Affymetrix, Santa Clara, Calif.).
In order to determine whether placental gene expression profiling can be used to identify other prenatal exposures such as toxicants and drugs, a group of rats with drug exposure was monitored as described above. […] As with control, CR50, CR70, and HF groups, placentas from the mothers were sampled after 21 days of gestation and gene expression monitored utilizing an Affymetrix Rat Genome Chip.

[1] = placenta, SSRI exposure during gestation, each SSRI column = one sample

SMILES: CNCCC(Oc1ccc(C(F)(F)F)cc1)c1ccccc1 (centres unmarked) [fluoxetine, Fluoxetine]
- Probeset 1391509_at expression (SSRI exposure during gestation): 8.436 and 8.44 and 8.929 and 8.687 and 8.508 and 8.574
- Probeset 1391678_at expression (SSRI exposure during gestation): 7.246 and 7.316 and 7.365 and 7.475 and 7.387 and 7.426
- Probeset 1391962_at expression (SSRI exposure during gestation): 3.906 and 3.859 and 3.835 and 3.838 and 3.857 and 3.918
- Probeset 1392950_at expression (SSRI exposure during gestation): 3.887 and 3.884 and 3.809 and 3.812 and 3.82 and 3.885
- Probeset 1393104_at expression (SSRI exposure during gestation): 5.976
- Probeset 1393428_at expression (SSRI exposure during gestation): 6.023 and 6.1025 and 6.34 and 6.137 and 6.165 and 5.935
- Probeset 1393438_at expression (SSRI exposure during gestation): 5.322 and 5.381 and 5.359 and 5.376 and 5.366 and 5.287
- Probeset 1393539_at expression (SSRI exposure during gestation): 5.342 and 5.53 and 5.247 and 5.255 and 5.363 and 5.602
- Probeset 1393939_at expression (SSRI exposure during gestation): 4.456 and 4.322 and 4.388 and 4.385 and 4.239 and 4.386
- Probeset 1393989_at expression (SSRI exposure during gestation): 7.171 and 6.991 and 7.091 and 6.963 and 7.057 and 6.799
- Probeset 1394343_s_at expression (SSRI exposure during gestation): 3.578 and 3.612 and 3.498 and 3.586 and 3.588 and 3.604
- Probeset 1394383_at expression (SSRI exposure during gestation): 6.226 and 6.542 and 6.277 and 5.892 and 6.155 and 6.124
- Probeset 1394790_at expression (SSRI exposure during gestation): 6.517 and 6.383 and 6.546 and 6.377 and 6.521 and 6.433
- Probeset 1394887_x_at expression (SSRI exposure during gestation): 4.369 and 4.298 and 4.253 and 4.258 and 4.269 and 4.251
- Probeset 1395316_at expression (SSRI exposure during gestation): 7.327 and 7.192 and 7.672 and 7.075 and 7.225 and 7.176
- Probeset 1396130_at expression (SSRI exposure during gestation): 3.997 and 4.12 and 3.89 and 3.815 and 3.974 and 3.921
- Probeset 1397268_at expression (SSRI exposure during gestation): 5.157 and 5.261 and 5.068 and 4.99 and 5.173 and 4.92
- Probeset 1397587_at expression (SSRI exposure during gestation): 7.542 and 7.104 and 7.072 and 7.17 and 7.225 and 6.496
- Probeset 1397676_at expression (SSRI exposure during gestation): 4.933 and 5.266 and 5.715 and 5.112 and 5.274 and 5.346
- Probeset 1397934_at expression (SSRI exposure during gestation): 8.299 and 8.221 and 8.122 and 8.187 (2×) and 8.222
- Probeset 1397956_at expression (SSRI exposure during gestation): 6.013 and 6.031 and 6.26 and 5.9 and 5.674 and 6.039
- Probeset 1398025_at expression (SSRI exposure during gestation): 7.379 and 7.277 and 7.364 and 7.102 and 7.172 and 7.095
- Probeset 1398136_at expression (SSRI exposure during gestation): 4.109 and 4.099 and 4.035 and 4.047 and 4.062 and 4.154
- Probeset 1398208_s_at expression (SSRI exposure during gestation): 6.851 and 6.897 and 7.112 and 6.972 and 6.892 and 7.056
- Probeset 1398486_at expression (SSRI exposure during gestation): 4.355 and 4.744 and 5.032 and 4.741 and 4.49 and 5.709
- Probeset 1398949_at expression (SSRI exposure during gestation): 8.606 and 8.576 and 8.664 and 8.941 and 8.595 and 8.818
- Probeset 1399108_at expression (SSRI exposure during gestation): 7.198 and 7.34 and 7.479 and 7.32 and 7.149 and 7.206
- Probeset 1368198_at expression value [1]: 5.473 and 5.314 and 5.48 and 5.486
- Probeset 1368824_at expression value [1]: 10.44 and 10.31 and 10.75 and 10.8577 and 10.39 and 10.8
- Probeset 1369775_at expression value [1]: 9.454 and 9.493 and 9.497 and 9.711 and 9.436 and 9.608
- Probeset 1370317_at expression value [1]: 8.582 and 8.538 and 9.288 and 9.274 and 9.399 and 9.017
- Probeset 1370918_a_at expression value [1]: 11.48 and 11.57 and 11.99 and 11.82 and 11.71 and 11.77
- Probeset 1371174_s_at expression value [1]: 5.805 and 5.865 and 5.868
- Probeset 1373572_at expression value [1]: 8.281 and 8.071 and 8.726 and 8.553 and 8.626 and 8.452
- Probeset 1373647_at expression value [1]: 8.537 and 8.662 and 9.067 and 8.963 and 8.812 and 8.988
- Probeset 1375178_at expression value [1]: 5.304 and 5.523 and 5.583 and 5.437 and 5.444 and 5.62
- Probeset 1376622_at expression value [1]: 8.516 and 8.814 and 8.398 and 8.068 and 8.494 and 8.379
- Probeset 1376661_at expression value [1]: 8.407 and 8.641 and 7.86 and 7.94 and 7.632 and 8.114
- Probeset 1377365_at expression value [1]: 5.846 and 5.083 and 5.532 and 6.127 and 5.643 and 5.687
- Probeset 1378200_at expression value [1]: 3.755 and 3.651 and 3.848 and 3.847 and 4.036 and 3.882
- Probeset 1378906_at expression value [1]: 3.9529 and 3.997 and 3.87 and 3.96 and 3.996 and 3.763
- Probeset 1379691_at expression value [1]: 5.812 and 5.91 and 6.656 and 6.738 and 5.925 and 6.573
- Probeset 1379822_at expression value [1]: 4.961 and 4.831 and 5.299 and 4.848 and 5.227 and 5.084
- Probeset 1380175_at expression value [1]: 4.934 and 4.975 and 4.85 and 4.93 and 4.966 and 4.859
- Probeset 1381456_at expression value [1]: 5.822 and 5.673 and 5.76 and 5.587 and 5.629 and 5.737
- Probeset 1381492_at expression value [1]: 3.536 and 3.464 and 3.556 and 3.687 and 3.747 and 3.65
- Probeset 1382156_at expression value [1]: 4.178 and 4.6 and 4.28 and 4.232 and 4.706 and 4.384
- Probeset 1382670_at expression value [1]: 8.21 and 8.049 and 7.137 and 7.314 and 7.643 and 7.446
- Probeset 1383054_at expression value [1]: 9.672 and 9.605 and 9.479 and 9.484 and 9.46 and 9.528
- Probeset 1383329_at expression value [1]: 5.299 and 5.567 and 5.281 (2×) and 5.561 and 5.339
- Probeset 1384137_at expression value [1]: 3.89 and 3.899
- Probeset 1384367_at expression value [1]: 5.152 and 5.5769 and 5.098 and 5.103 and 5.137 and 5.449
- Probeset 1384573_at expression value [1]: 9.396 and 9.335 and 9.669 and 9.82 and 10.3 and 9.808
- Probeset 1385074_at expression value [1]: 6.094 and 5.703 and 6.069 and 5.946 and 6.214 and 6.404
- Probeset 1385290_at expression value [1]: 5.664 (2×) and 5.339 and 5.511 and 5.599 and 5.438
- Probeset 1385386_at expression value [1]: 4.05 and 4.2 and 4.368 and 4.404 and 4.111 and 4.351
- Probeset 1385391_at expression value [1]: 5.218 and 4.757 and 4.618
- Probeset 1385790_at expression value [1]: 8.262 and 8.645 and 8.217 and 8.093 and 8.254 and 8.458
- Probeset 1387693_a_at expression value [1]: 4.775 and 5.713 and 5.222 and 5.079 and 4.944 and 5.129
- Probeset 1387694_at expression value [1]: 5.039 and 4.874 and 4.919 and 4.933 and 5.073 and 4.691
- Probeset 1387822_at expression value [1]: 5.838 and 6.319 and 5.874 and 5.79 and 5.5082 and 5.909
- Probeset 1387836_at expression value [1]: 6.664 and 6.515 and 7.321 and 7.12 and 6.632 and 6.906
- Probeset 1387914_at expression value [1]: 7.456 and 7.375 and 7.641 and 7.405 and 7.42 and 7.231
- Probeset 1388131_at expression value [1]: 5.482 and 5.724 and 5.628 and 5.313 and 5.378 and 5.32
- Probeset 1388363_at expression value [1]: 8.48 and 8.558 and 9.033 and 9.198 and 8.642 and 9.018
- Probeset 1388669_at expression value [1]: 7.943 and 7.729 and 8.56 and 8.668 and 8.519 and 8.408
- Probeset 1389213_at expression value [1]: 7.554 and 7.674 and 7.18 and 7.082 and 7.285 and 7.531
- Probeset 1389599_at expression value [1]: 6.535 and 6.776 and 5.918 and 6.015 and 6.327 and 6.205
- Probeset 1390406_at expression value [1]: 10.62 (2×) and 11.01 and 10.93 and 11.3 and 11.1
- Probeset 1390477_at expression value [1]: 5.088 and 5.213 and 4.637 and 4.864 and 4.99 and 4.712
- Probeset 1390592_at expression value [1]: 9.083 and 9.085 and 9.028 and 9.301
- Probeset 1391283_at expression value [1]: 5.168 and 5.671 and 5.216 and 5.355 and 5.486 and 5.461
- Probeset 1391509_at expression value [1]: 7.81 and 8.329 and 7.825 and 7.918 and 8.117 and 8.184
- Probeset 1391678_at expression value [1]: 6.728 and 7.03 and 6.037 and 5.684 and 5.954 and 6.264
- Probeset 1391962_at expression value [1]: 4.079 and 4.011 and 3.937 and 4.018 and 4.024 and 3.918
- Probeset 1393428_at expression value [1]: 6.698 and 6.377 and 7.114 and 7.29 and 7.299 and 6.755
- Probeset 1393438_at expression value [1]: 5.068 and 5.185 and 5.0534 and 5.206 and 4.959 and 5.153
- Probeset 1394343_s_at expression value [1]: 3.666 and 3.629 and 3.872 and 3.785 and 3.852 and 3.841
- Probeset 1394383_at expression value [1]: 5.713 and 6.062 and 5.324 and 5.199 and 5.6 and 5.247
- Probeset 1394887_x_at expression value [1]: 4.063 and 4.143 and 3.656 and 3.536 and 3.475 and 3.919
- Probeset 1395817_at expression value [1]: 6.714 and 6.49 and 6.649
- Probeset 1396130_at expression value [1]: 3.756 and 3.764 and 3.744 and 3.847 and 3.746 and 3.741
- Probeset 1397268_at expression value [1]: 4.565 and 5.072 and 4.482 and 4.73 and 4.645 and 4.567
- Probeset 1397587_at expression value [1]: 6.561 and 6.659 and 6.326 and 6.196 and 6.181 and 6.179
- Probeset 1397934_at expression value [1]: 8.072 and 8.118 and 7.76 and 7.912 and 7.673 and 7.856
- Probeset 1398136_at expression value [1]: 4.139 and 4.205 and 4.178 and 4.175 and 4.278 and 4.212
- Probeset 1398486_at expression value [1]: 5.62 and 5.739 and 6.477 and 7.05 and 7.673 and 6.597
- Probeset 1398949_at expression value [1]: 9.031 and 8.874 and 9.095 and 9.297 and 9.003 and 9.17
- expression, probeset 368199_at (placenta, SSRI-exposed samples): 8.586 and 8.944 and 9.045 and 9.265 and 9.277 and 9.377
- expression, probeset 1367489_at (placenta, SSRI-exposed samples): 7.839 and 8.052 and 7.771 and 7.614 and 7.86 and 7.738
- expression, probeset 1367856_at (placenta, SSRI-exposed samples): 9.745 and 9.797 and 10.22 and 10.51 and 10.38 and 10.14
- expression, probeset 1367866_at (placenta, SSRI-exposed samples): 5.591 and 5.571
- expression, probeset 1367877_at (placenta, SSRI-exposed samples): 9.4471 and 9.923 and 9.622 and 8.883 and 9.902 and 8.73
- expression, probeset 1367978_at (placenta, SSRI-exposed samples): 5.914 and 6.324 and 5.574 and 5.778 and 5.944 and 5.842
- expression, probeset 1368083_at (placenta, SSRI-exposed samples): 8.501 and 8.375 and 9.053 and 8.928 and 9.103 and 8.728
- expression, probeset 1368397_at (placenta, SSRI-exposed samples): 3.806 and 3.897 and 3.87 and 3.843 and 3.78 and 3.762
- expression, probeset 1368542_at (placenta, SSRI-exposed samples): 6.355 and 7.586 and 6.712 and 6.347 and 6.563 and 7.001
- expression, probeset 1368646_at (placenta, SSRI-exposed samples): 5.644 and 5.882 and 5.515 and 5.483 and 5.352 and 5.292
